Measured values from publication PMC6409773 (Marine Drugs, 2019).
Each block holds one compound with its values, some of them ahead of it.

Key:
D1 (h) Dopamine [1] = target: T1, D1 (h) Dopamine (Homo sapiens, UniProt P21728); assay: Cell-based functional GPCR assay, agonist effect (cAMP); conditions: read-out: % of Control Agonist Response
Experimental: (§1) A functional GPCR cell-based assay presents readouts of multiple second messengers including cAMP for Gi and Gs-coupled receptors and IP1 and IP3/calcium flux for Gq-coupled receptors. Functional assays were conducted at Eurofins Cerep (Le Bois I’Eveque, France) using transected cells expressing human cloned receptors. The in-house functional assay protocol (https://www.eurofinsdiscoveryservices.com/cms/cms-content/services/in-vitro-assays/gpcrs/functional/) and experimental conditions are shown in Supplementary Table S1. Stable cell lines expressing recombinant GPCRs were used in this study.
(§2) . Following incubation, cells were lysed and a fluorescence acceptor (D2-labeled cAMP) and fluorescence donor (anti-cAMP antibody with europium cryptate) were added. After 60 min at room temperature, fluorescence transfer was measured at λex = 337 nm and λem = 620 and 665 nm using a microplate reader (Envison, Perkin Elmer, Waltham, MA, USA). Cyclic AMP concentration was determined by dividing the signal measured at 665 nm by that measured at 620 nm (ratio). […].
(§3) Cellular agonist effect was calculated as the percentage of the control response to a known reference agonist for each target and the cellular antagonist effect was calculated as the percentage inhibition of the control reference agonist response for each target. Results are expressed as a percentage of control agonist response or inverse agonist response (measured response/control response × 100) and as percent inhibition of control agonist response [100 − (measured response/control response × 100)] obtained in the presence of the eckol.

D3 (h) Dopamine [2] = target: T2, D3 (h) Dopamine (Homo sapiens, UniProt P35462); assay: as above
Experimental: as §1, §2, §3

D4 (h) Dopamine [3] = target: T3, D4 (h) Dopamine (Homo sapiens, UniProt P21917); assay: as above
T3 sequence (P21917 1-419): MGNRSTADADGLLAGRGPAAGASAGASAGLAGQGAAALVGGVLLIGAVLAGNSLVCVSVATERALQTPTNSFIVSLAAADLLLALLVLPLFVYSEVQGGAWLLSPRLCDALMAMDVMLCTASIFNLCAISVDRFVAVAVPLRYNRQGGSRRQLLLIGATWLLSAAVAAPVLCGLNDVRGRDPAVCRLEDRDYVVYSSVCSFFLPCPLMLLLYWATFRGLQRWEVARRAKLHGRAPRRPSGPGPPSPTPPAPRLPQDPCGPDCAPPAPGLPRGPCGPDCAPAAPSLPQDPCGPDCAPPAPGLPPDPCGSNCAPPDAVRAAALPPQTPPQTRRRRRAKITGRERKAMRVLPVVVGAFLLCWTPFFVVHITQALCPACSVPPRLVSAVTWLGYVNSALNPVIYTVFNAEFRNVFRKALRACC
Experimental: as §1, §2, §3

5-HT1A (h) Serotonin [4] = target: T4, 5-HT1A (h) Serotonin (Homo sapiens, UniProt P08908); assay: Cell-based functional GPCR assay, agonist effect; conditions: read-out: % of Control Agonist Response
T4 sequence (P08908 1-422): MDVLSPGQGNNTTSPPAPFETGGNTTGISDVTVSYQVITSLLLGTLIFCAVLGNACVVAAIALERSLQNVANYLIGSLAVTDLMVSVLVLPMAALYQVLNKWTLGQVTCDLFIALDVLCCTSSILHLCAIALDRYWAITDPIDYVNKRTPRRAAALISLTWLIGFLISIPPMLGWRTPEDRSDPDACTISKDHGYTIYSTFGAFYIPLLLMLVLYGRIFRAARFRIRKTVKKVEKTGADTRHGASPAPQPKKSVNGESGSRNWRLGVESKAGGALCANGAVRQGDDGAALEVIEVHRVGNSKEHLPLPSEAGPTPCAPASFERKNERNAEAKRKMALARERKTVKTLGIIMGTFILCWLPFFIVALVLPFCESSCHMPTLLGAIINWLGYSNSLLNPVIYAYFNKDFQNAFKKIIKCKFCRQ
Experimental: as §1
(§4) The method used to quantify the intracellular [Ca^2+] level varied slightly according to receptor type. However, in general, cells expressing different receptors (Table 1) were transfected with an expression vector encoding a receptor polypeptide and were allowed to grow for a time period sufficient for that receptor to be expressed. A fluorescent probe (Fluo8 Direct, Invitrogen, Carlsbad, CA, USA) mixed with probencid in HBSS buffer (Invitrogen, Carlsbad, CA, USA) supplemented with […] (Invitrogen) (pH 7.4) was then added to each well and allowed to equilibrate with the cells for 60 min at 37 °C. Thereafter, assay plates were positioned in a microplate reader (CellLux, PerkinElmer, Waltham, MA, USA) and eckol (25 and 50 μM), reference agonist, or HBSS buffer (basal control) were added, and measurements of the change in fluorescence intensity, which varies proportionally to the free cytosolic Ca^2+ ion concentration, were taken. Standard reference control (agonist and antagonist) values are presented in Table 1, and controls were included in each experiment at several concentrations to generate a concentration-response curve from which to calculate EC50 values.
as §3

[5] = target: T5, M5 (h) Acetylcholine (muscarinic) (Homo sapiens, UniProt P08912); assay: Cell-based functional GPCR assay, agonist effect; conditions: read-out: % of Control Agonist Response
T5 sequence (P08912 1-532): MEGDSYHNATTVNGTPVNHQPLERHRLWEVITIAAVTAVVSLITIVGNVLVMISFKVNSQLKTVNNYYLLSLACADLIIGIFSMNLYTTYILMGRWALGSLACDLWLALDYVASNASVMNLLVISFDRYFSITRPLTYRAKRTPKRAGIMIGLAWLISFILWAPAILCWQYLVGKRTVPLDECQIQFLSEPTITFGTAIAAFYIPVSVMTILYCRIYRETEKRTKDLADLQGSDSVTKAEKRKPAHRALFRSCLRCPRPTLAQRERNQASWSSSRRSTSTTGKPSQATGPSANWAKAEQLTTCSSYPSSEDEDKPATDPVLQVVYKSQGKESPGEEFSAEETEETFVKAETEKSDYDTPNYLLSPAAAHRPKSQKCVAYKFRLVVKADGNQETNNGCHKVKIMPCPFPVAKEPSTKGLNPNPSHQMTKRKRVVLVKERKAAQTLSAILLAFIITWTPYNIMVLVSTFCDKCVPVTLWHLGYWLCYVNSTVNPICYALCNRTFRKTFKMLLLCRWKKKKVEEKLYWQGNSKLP
Experimental: as §1, §4, §3

NK1 (h) Tachykinin [6] = target: T6, NK1 (h) Tachykinin (Homo sapiens, UniProt P25103); assay: Cell-based functional GPCR assay, agonist effect; conditions: read-out: % of Control Agonist Response
Experimental: as §1, §4, §3

[7] = target: T7, V1A (h) Vasopressin/Oxytocin (Homo sapiens, UniProt P37288); assay: Cell-based functional GPCR assay, agonist effect; conditions: read-out: % of Control Agonist Response
Experimental: as §1, §4, §3

D1 (h) Dopamine [8] = target: T1, D1 (h) Dopamine; assay: Cell-based functional GPCR assay, antagonist effect (cAMP); conditions: read-out: % Inhibition of Control Agonist Response
Experimental: as §1, §2, §3

D3 (h) Dopamine [9] = target: T2, D3 (h) Dopamine; assay: as above; conditions: read-out: % Inhibition of Control Agonist Response
Experimental: as §1, §2, §3

D4 (h) Dopamine [10] = target: T3, D4 (h) Dopamine; assay: as above; conditions: read-out: % Inhibition of Control Agonist Response
Experimental: as §1, §2, §3

5-HT1A (h) Serotonin [11] = target: T4, 5-HT1A (h) Serotonin; assay: Cell-based functional GPCR assay, antagonist effect; conditions: read-out: % Inhibition of Control Agonist Response
Experimental: as §1, §4, §3

[12] = target: T5, M5 (h) Acetylcholine (muscarinic); assay: as above; conditions: read-out: % Inhibition of Control Agonist Response
Experimental: as §1, §4, §3

NK1 (h) Tachykinin [13] = target: T6, NK1 (h) Tachykinin; assay: as above; conditions: read-out: % Inhibition of Control Agonist Response
Experimental: as §1, §4, §3

[14] = target: T7, V1A (h) Vasopressin/Oxytocin; assay: as above; conditions: read-out: % Inhibition of Control Agonist Response
Experimental: as §1, §4, §3

NK1 (h) Tachykinin [15] = target: T6, NK1 (h) Tachykinin; design: method as in Eurofins Panlab; conditions: as reported by Eurofins Panlab, ref Eurofins Panlab, read-out: Reference Antagonists of Respective Target Receptors IC50; cited from earlier work
[16] = 25 μM, read-out: % of Control Agonist Response
[17] = 50 μM, read-out: % of Control Agonist Response
[18] = read-out: EC50 (concentration producing a half-maximal agonist response)

T6 sequence (P25103 whole entry): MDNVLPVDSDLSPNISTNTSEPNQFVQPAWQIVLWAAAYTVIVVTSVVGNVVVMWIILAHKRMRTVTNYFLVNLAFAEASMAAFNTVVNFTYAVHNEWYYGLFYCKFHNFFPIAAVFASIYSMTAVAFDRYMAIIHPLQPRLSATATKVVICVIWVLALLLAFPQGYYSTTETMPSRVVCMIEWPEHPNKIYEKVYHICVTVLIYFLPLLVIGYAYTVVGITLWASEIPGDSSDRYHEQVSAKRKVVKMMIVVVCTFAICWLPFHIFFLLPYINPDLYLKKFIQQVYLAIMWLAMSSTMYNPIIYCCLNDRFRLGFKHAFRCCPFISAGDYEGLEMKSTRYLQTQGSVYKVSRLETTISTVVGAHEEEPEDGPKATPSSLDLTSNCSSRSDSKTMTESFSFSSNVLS
T2 sequence (P35462 whole entry): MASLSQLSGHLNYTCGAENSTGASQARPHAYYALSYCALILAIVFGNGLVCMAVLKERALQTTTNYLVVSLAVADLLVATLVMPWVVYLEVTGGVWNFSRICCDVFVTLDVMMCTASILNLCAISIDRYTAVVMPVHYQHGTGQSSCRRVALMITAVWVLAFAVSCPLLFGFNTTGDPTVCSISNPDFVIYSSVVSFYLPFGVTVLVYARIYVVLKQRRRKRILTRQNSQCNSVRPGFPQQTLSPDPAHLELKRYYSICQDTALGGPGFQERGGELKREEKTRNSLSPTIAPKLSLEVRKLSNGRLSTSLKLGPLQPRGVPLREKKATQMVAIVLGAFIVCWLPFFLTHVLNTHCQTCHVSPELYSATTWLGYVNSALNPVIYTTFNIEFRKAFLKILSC
T1 sequence (P21728 whole entry): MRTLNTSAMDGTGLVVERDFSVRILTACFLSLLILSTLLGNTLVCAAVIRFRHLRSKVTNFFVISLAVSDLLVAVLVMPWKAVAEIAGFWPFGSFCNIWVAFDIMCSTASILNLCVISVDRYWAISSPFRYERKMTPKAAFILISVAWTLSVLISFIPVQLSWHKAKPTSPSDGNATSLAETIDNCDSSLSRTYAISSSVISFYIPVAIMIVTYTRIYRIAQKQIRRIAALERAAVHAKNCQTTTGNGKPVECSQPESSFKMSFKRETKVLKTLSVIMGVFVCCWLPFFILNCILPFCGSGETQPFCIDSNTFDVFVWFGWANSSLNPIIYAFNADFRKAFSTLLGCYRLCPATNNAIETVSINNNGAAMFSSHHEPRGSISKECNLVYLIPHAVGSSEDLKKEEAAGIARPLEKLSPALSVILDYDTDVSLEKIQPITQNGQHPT
T7 sequence (P37288 whole entry): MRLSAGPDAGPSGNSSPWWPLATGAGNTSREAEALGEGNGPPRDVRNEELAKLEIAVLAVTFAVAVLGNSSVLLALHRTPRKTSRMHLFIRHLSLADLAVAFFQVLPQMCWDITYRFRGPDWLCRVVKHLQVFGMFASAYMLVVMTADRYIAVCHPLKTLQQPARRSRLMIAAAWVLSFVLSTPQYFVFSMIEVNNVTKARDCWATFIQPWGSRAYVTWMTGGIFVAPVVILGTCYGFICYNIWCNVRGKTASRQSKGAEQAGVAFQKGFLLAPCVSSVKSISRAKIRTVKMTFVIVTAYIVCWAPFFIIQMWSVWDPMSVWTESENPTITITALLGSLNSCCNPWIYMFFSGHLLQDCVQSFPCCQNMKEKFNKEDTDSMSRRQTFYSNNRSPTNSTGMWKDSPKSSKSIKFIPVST

activity at 25 µM (D1 (h) Dopamine [1]; 25 μM): -0.58 ± 2.46%
activity at 50 µM (D1 (h) Dopamine [1]; 50 μM): -2.77 ± 1.27%
activity at 25 µM (D3 (h) Dopamine [2]; [16]): 10.6 ± 4.16%
activity at 50 µM (D3 (h) Dopamine [2]; [17]): 53.1 ± 6.67%
EC50 (D3 (h) Dopamine [2]; [18]): 48.6 ± 3.21 µM
activity at 25 µM (D4 (h) Dopamine [3]; [16]): 36.5 ± 10.9%
activity at 50 µM (D4 (h) Dopamine [3]; [17]): 54.7 ± 7.05%
EC50 (D4 (h) Dopamine [3]; [18]): 42.6 ± 2.54 µM
activity at 25 µM (5-HT1A (h) Serotonin [4]; 25 μM): -1.78 ± 0.45%
activity at 50 µM (5-HT1A (h) Serotonin [4]; 50 μM): -3.04 ± 1.23%
activity at 25 µM ([5]; 25 μM): 0.38 ± 0.1%
activity at 50 µM ([5]; 50 μM): 0.39 ± 0.46%
activity at 25 µM (NK1 (h) Tachykinin [6]; 25 μM): -2.32 ± 0.26%
activity at 50 µM (NK1 (h) Tachykinin [6]; 50 μM): -2.99 ± 0.21%
activity at 25 µM ([7]; 25 μM): -8.91 ± 3.2%
activity at 50 µM ([7]; 50 μM): -12.5 ± 0.51%
inhibition at 25 µM (D1 (h) Dopamine [8]; 25 μM): 11.6 ± 2.15%
inhibition at 50 µM (D1 (h) Dopamine [8]; 50 μM): 1.89 ± 1.62%
inhibition at 25 µM (D3 (h) Dopamine [9]; 25 μM): -9 ± 6.98%
inhibition at 50 µM (D3 (h) Dopamine [9]; 50 μM): -15.1 ± 2.51%
inhibition at 25 µM (D4 (h) Dopamine [10]; 25 μM): 1.33 ± 1.7%
inhibition at 50 µM (D4 (h) Dopamine [10]; 50 μM): -3.33 ± 4.7%
inhibition at 25 µM (5-HT1A (h) Serotonin [11]; 25 μM): 6.17 ± 10.3%
inhibition at 50 µM (5-HT1A (h) Serotonin [11]; 50 μM): 3.49 ± 4.33%
inhibition at 25 µM ([12]; 25 μM): 1 ± 0.4%
inhibition at 50 µM ([12]; 50 μM): -4.8 ± 2.25%
inhibition at 25 µM (NK1 (h) Tachykinin [13]; 25 μM): -11.3 ± 6.37%
inhibition at 50 µM (NK1 (h) Tachykinin [13]; 50 μM): -4.32 ± 3.33%
inhibition at 25 µM ([14]; 25 μM): -13.5 ± 6.93%
inhibition at 50 µM ([14]; 50 μM): -4.26 ± 11.1%
SMILES: Oc1cc(O)cc(Oc2c(O)cc(O)c3c2Oc2c(O)cc(O)cc2O3)c1 [Eckol, eckol]

SMILES: FC(F)(F)c1cc(CO[C@H]2CCCN[C@H]2c2ccccc2)cc(C(F)(F)F)c1 [L 733,060]
IC50 (NK1 (h) Tachykinin [15]): 0.00021 µM
